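Method: 48-hour compound exposure of cells in 96-well plates, five concentrations, linear interpolation of endpoints. The concentration for 50% growth inhibition is given as GI50.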 Activity calls are given as the source filed them. Cut-off read from the data, not from the text of the source: active = GI50 up to about 1.1 µM and inactive = higher.
Experiments:
Assay in all cases: growth of human tumour cells (NCI), 48 h
[1] = system: MOLT-4
[2] = system: HT-29
[3] = system: ACHN
[4] = system: OVCAR-3
[5] = system: NCI/ADR-RES
[6] = system: NCI-H460
[7] = system: SN12C
[8] = system: 786-0
[9] = system: MDA-MB-435
[10] = system: SK-MEL-28
[11] = system: KM12
[12] = system: HCT-15
[13] = system: HOP-92
[14] = system: Malme-3M
[15] = system: SW-620
[16] = system: MDA-MB-231
[17] = system: SK-MEL-2
[18] = system: SF-268
[19] = system: Hs-578T
[20] = system: OVCAR-5

Row | Compound | GI50 [1] | GI50 [2] | GI50 [3] | GI50 [4] | GI50 [5] | GI50 [6] | GI50 [7] | GI50 [8] | GI50 [9] | GI50 [10] | GI50 [11] | GI50 [12] [µM] | GI50 [13] | GI50 [14] | GI50 [15] | GI50 [16] | GI50 [17] | GI50 [18] | GI50 [19] | GI50 [20]
1 | O=C(O)c1cc2ccccc2c(/N=N/c2ccc(S(=O)(=O)Nc3nccs3)cc2)c1O | > 100 µM (inactive) | > 100 µM (inactive) | > 100 µM (inactive) | > 100 µM (inactive) | > 100 µM (inactive) | > 100 µM (inactive) | > 100 µM (inactive) | > 100 µM (inactive) | > 100 µM (inactive) | > 100 µM (inactive) | > 100 µM (inactive) | > 100 | > 100 µM (inactive) | > 100 µM (inactive) | > 100 µM (inactive) | > 100 µM (inactive) | > 100 µM (inactive) | > 100 µM (inactive) | > 100 µM (inactive) | > 100 µM (inactive)
2 | N#Cc1c(N2CCN(c3ccc([N+](=O)[O-])cc3)CC2)[n+]([O-])c2ccc(Cl)cc2[n+]1[O-] | 1.18 µM (inactive) | 1.31 µM (inactive) | 0.789 µM (active) | 0.745 µM (active) | 1.07 µM (active) | 0.0644 µM (active) | 0.966 µM (active) | 0.718 µM (active) | 1.8 µM (inactive) | 4.52 µM (inactive) | 1.7 µM (inactive) | 0.627 | 0.161 µM (active) | 2 µM (inactive) | 0.646 µM (active) | 1.04 µM (active) | 2.2 µM (inactive) | 1.86 µM (inactive) | 2.11 µM (inactive) | 3.4 µM (inactive)
3 | COCCNC1CCC(=O)c2[nH]c3ccccc3c21 (stereo not given) | > 100 µM (inactive) | > 100 µM (inactive) | > 100 µM (inactive) | 40.2 µM (inactive) | > 100 µM (inactive) | > 100 µM (inactive) | > 100 µM (inactive) | > 100 µM (inactive) | > 100 µM (inactive) | > 100 µM (inactive) | > 100 µM (inactive) | > 100 | > 100 µM (inactive) | > 100 µM (inactive) | > 100 µM (inactive) | > 100 µM (inactive) | > 100 µM (inactive) | > 100 µM (inactive) | 83.9 µM (inactive) | > 100 µM (inactive)
4 | CC(CCc1nc2ccccc2s1)(c1ccc(O)cc1)c1ccc(O)cc1 | 12.7 µM (inactive) | 20.1 µM (inactive) | 18.3 µM (inactive) | 17.5 µM (inactive) | 25.4 µM (inactive) | 16.4 µM (inactive) | 17.9 µM (inactive) | 15.1 µM (inactive) | 16.1 µM (inactive) | 19 µM (inactive) | 15.4 µM (inactive) | 18.4 | 20.1 µM (inactive) | 16.5 µM (inactive) | 19.8 µM (inactive) | 17.9 µM (inactive) | 17 µM (inactive) | 20 µM (inactive) | 20.4 µM (inactive) | 18.1 µM (inactive)
